The conditions of data set [1]: the molecule shown is the open-chain precursor; cc_pd bond; 15-membered ring; PdCl2(dppf)-CH2Cl2/K2CO3; dioxane/H2O; 1.0 mM; 85.0 °C.
Data set [2] addresses T1, myeloperoxidase (Homo sapiens (Human), UniProt P05164). Put plainly: MPO Peroxidation Assay (Amplex Red Assay). In kind it is biochemical. The following applies: MPO peroxidation activity, 100 mM KPi (pH 7.4), ten minute preincubation; potency ranges defined in nM. As for the experimental part: MPO Peroxidation Assay (Amplex Red Assay)
MPO peroxidation activity was measured in 100 mM KPi (pH 7.4) by utilizing the non-fluorescent reagent Amplex Red (Invitrogen Cat. #A12222) which can be oxidized to the highly fluorescent resorufin. Amplex Red is oxidized by the peroxidase action of MPO to resorufin. Reactions were carried out in 50 μL total volume by adding a 25 μL mixture of 200 pM myeloperoxidase and 40 nM H2O2 (Sigma #349887) to 100 nL inhibitor in 100% DMSO in a 384 well Perkin Elmer Optiplate. Enzyme and compound were preincubated for ten minutes at room temperature.
After the ten minute preincubation, 25 μL of an Amplex Red mixture containing 200 μM Amplex Red and 10 mM H2O2 was added to the plate. Kinetic determinations were carried out immediately on a Perkin Elmer Envision (15 minute kinetic read, Ex: 535 nm, Em: 590 nm).
(§1) IC50 values were calculated by determining the slope of the linear portion of the kinetic trace (180-540 secs), and using that calculated slope to determine % inhibition occurring at each concentration of inhibitor using the following equation:
(§2) [formula] where A=minimal Y value (activity level of inhibited sample), B=maximal Y value (activity level of uninhibited sample), C=Log IC50, D=Hill Slope, x=concentration of inhibitor. MPO Chlorination Assay (APF Assay) MPO chlorination activity was measured in 100 mM KPi (pH 7.4) by utilizing the non-fluorescent reagent Aminophenyl fluorescein (APF, Invitrogen Cat. #A36003). APF is cleaved by (—OCl) to yield the fluorescent compound fluorescein. Reactions were carried out in 50 μL total volume by adding a 25 μL mixture of 200 pM myeloperoxidase and 120 mM NaCl to 100 nL inhibitor in 100% DMSO in a 384 well, non-binding surface clear bottom plate (Corning #3655). Enzyme, inhibitor, and chloride were preincubated for ten minutes at room temperature.

Data set [3] has as its target T1, myeloperoxidase. Put plainly: MPO Chlorination Assay (APF Assay). In kind it is biochemical. The following applies: MPO chlorination activity, 100 mM KPi (pH 7.4), 120 mM NaCl, ten minute preincubation; potency ranges defined in nM. As for the experimental part:
as §2
After the ten minute preincubation, 25 μL of an APF mixture containing […], 120 mM NaCl and 10 μM H2O2 was added to the plate using the internal dispensing system of a Hammatsu FDSS 6000. Kinetic determinations were carried out immediately on the FDSS 6000 (3 minute kinetic read, 1 read every second, ex: 485 nm, em: 535 nm). IC50 values for inhibitors were calculated by taking the slope of the linear portion of the kinetic measurement (20 seconds to 80-120 secs).
as §1
[formula] where A=minimal Y value (activity level of inhibited sample), B=maximal Y value (activity level of uninhibited sample), C=Log IC50, D=Hill Slope, x=concentration of inhibitor. EPX Bromination Assay

T1 sequence (P05164 49-745): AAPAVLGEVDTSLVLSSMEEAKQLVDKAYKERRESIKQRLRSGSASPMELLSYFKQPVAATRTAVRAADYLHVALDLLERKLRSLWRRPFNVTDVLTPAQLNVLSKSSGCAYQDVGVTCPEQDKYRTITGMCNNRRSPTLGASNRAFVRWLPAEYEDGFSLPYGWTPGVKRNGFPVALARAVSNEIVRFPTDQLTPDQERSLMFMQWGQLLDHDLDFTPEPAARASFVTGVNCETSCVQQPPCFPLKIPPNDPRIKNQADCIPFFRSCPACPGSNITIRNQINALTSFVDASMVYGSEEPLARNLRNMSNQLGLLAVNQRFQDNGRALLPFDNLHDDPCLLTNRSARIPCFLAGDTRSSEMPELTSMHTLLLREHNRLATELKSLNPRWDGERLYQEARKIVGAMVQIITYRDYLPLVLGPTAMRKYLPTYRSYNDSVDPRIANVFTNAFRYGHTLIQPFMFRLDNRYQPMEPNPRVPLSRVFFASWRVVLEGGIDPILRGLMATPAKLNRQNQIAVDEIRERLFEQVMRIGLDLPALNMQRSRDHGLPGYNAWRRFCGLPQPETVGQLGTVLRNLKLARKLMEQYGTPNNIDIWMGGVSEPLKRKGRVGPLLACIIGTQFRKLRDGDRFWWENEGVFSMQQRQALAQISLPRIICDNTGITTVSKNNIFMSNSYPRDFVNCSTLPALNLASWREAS

In the case of `CC(C)(C)OC(=O)N(C/C=C(\I)c1cc(NC(c2ccccc2)(c2ccccc2)c2ccccc2)nc2c1nnn2C(c1ccccc1)(c1ccccc1)c1ccccc1)[C@H]1C[C@H](Cc2ccccc2)[C@H](Oc2cccc(Cn3cc(B4OC(C)(C)C(C)(C)O4)cn3)c2)C1`, the ring closure, isolated yield in data set [1] stood at 45%.

For `Nc1cc(C2CCNCCc3cccc(c3)Oc3cccc(c3)Cn3cc2cn3)c2nn[nH]c2n1` (centres unmarked) [Example 3, 7-{18-oxa-3,4,10-triazatetracyclo[17.3.1.1^3,^6.1^13,^1^7]pentacosa-1(23),4,6(25),13,15,17(24),19,21-octaen-7-yl}-3H-[1,2,3]triazolo[4,5-b]pyridin-5-amine], the half-maximal inhibitory concentration (IC50) on myeloperoxidase [2] and against myeloperoxidase [3] was 1 to 100 nM throughout.

As to `Nc1cc(C2CCNCc3cc(cc(OC(F)(F)F)c3)COc3cccc(c3)Cn3cc2cn3)c2nn[nH]c2n1` (centres unmarked) [Example 23, 7-[14-(Trifluoromethoxy)-18-oxa-3,4,10-triazatetracyclo[17.3.1.1^3,^6.1^12,^1^6]pentacosa-1(23),4,6(25),12,14,16(24),19,21-octaen-7-yl]-3H-[1,2,3]triazolo[4,5-b]pyridin-5-amine], the IC50 against myeloperoxidase [2] lay within 1000 to 10000 nM; on myeloperoxidase [3] it was 101 to 999 nM.

For `Nc1cc(C2CCNCCc3cccc(c3)OCc3cccc(c3)Cn3cc2cn3)c2nn[nH]c2n1` (centres unmarked) [Example 16, 7-{18-Oxa-3,4,10-triazatetracyclo[18.3.1.1^3,^6.1^13,^1^7]hexacosa-1(24),4,6(26),13(25),14,16,20,22-octaen-7-yl}-3H-[1,2,3]triazolo[4,5-b]pyridin-5-amine], the half-maximal inhibitory concentration (IC50) against myeloperoxidase [2] lay within 101 to 999 nM; on myeloperoxidase [3], 1 to 100 nM.

As for `Nc1cc([C@@H]2CCN[C@H]3C[C@H](Cc4ccccc4)[C@@H](C3)Oc3cccc(c3)Cn3cc2cn3)c2nn[nH]c2n1` [Example 25, 7-[(3R,4S,6S,10S)-4-Benzyl-2-oxa-7,13,14-triazatetracyclo[14.3.1.1^3,^6.1^11,^1^4]docosa-1(19),11(21),12,16(20),17-pentaen-10-yl]-3H-[1,2,3]triazolo[4,5-b]pyridin-5-amine], the 50% inhibitory concentration (IC50) against myeloperoxidase [2] and on myeloperoxidase [3] was 1 to 100 nM in each case.

With `Nc1cc(C2CCN[C@H](CO)Cc3cccc(c3)Oc3cccc(c3)Cn3cc2cn3)c2nn[nH]c2n1` (stereo partly drawn) [Example 11, [(11S)-7-{5-Amino-3H-[1,2,3]triazolo[4,5-b]pyridin-7-yl}-18-oxa-3,4,10-triazatetracyclo[17.3.1.1^3,^6.1^13,^1^7]pentacosa-1(23),4,6(25),13,15,17(24),19,21-octaen-11-yl]methanol], the half-maximal inhibitory concentration (IC50) was 101 to 999 nM on myeloperoxidase [2] and 1 to 100 nM at myeloperoxidase [3].

Turning to `Nc1cc([C@H]2CCN[C@H]3C[C@H](Cc4ccccc4)[C@@H](C3)Oc3cccc(c3)Cn3cc2cn3)c2nn[nH]c2n1` [Example 26, 7-[(3R,4S,6S,10R)-4-Benzyl-2-oxa-7,13,14-triazatetracyclo[14.3.1.1^3,^6.1^11,^1^4]docosa-1(19),11(21),12,16(20),17-pentaen-10-yl]-3H-[1,2,3]triazolo[4,5-b]pyridin-5-amine], the 50% inhibitory concentration (IC50) at myeloperoxidase [2] and at myeloperoxidase [3] was 1 to 100 nM each time.

For `Nc1cc(C2CCNCc3cccc(c3)OCc3cccc(c3)Cn3cc2cn3)c2nn[nH]c2n1` (centres unmarked) [Example 9, 7-{17-Oxa-3,4,10-triazatetracyclo[17.3.1.1^3,^6.1^12,^1^6]pentacosa-1(23),4,6(25),12,14,16(24),19,21-octaen-7-yl}-3H-[1,2,3]triazolo[4,5-b]pyridin-5-amine], the IC50 against myeloperoxidase [2] and on myeloperoxidase [3] was 1 to 100 nM throughout.

Turning to `Nc1cc(C2CCN[C@H]3CC[C@@H](COc4cccc(c4)Cn4cc2cn4)C3)c2nn[nH]c2n1` (stereo partly drawn) [Example 32, 7-[(11S,14R)-16-Oxa-3,4,10-triazatetracyclo[15.3.1.1^3,^6.1^11,^1^4]tricosa-1(21),4,6(23),17,19-pentaen-7-yl]-3H-[1,2,3]triazolo[4,5-b]pyridin-5-amine], the IC50 at myeloperoxidase [2] lay within 101 to 999 nM; on myeloperoxidase [3], 1 to 100 nM.

For `COCCN1CCc2cccc(c2)Oc2cccc(c2)Cn2cc(cn2)C(c2cc(N)nc3[nH]nnc23)CC1` (centres unmarked) [Example 37, 7-[10-(2-Methoxyethyl)-18-oxa-3,4,10-triazatetracyclo[17.3.1.1^3,^6.1^13,^1^7]pentacosa-1(23),4,6(25),13,15,17(24),19,21-octaen-7-yl]-3H-[1,2,3]triazolo[4,5-b]pyridin-5-amine], the IC50 was in the range of 1000 to 10000 nM against myeloperoxidase [2] and 101 to 999 nM at myeloperoxidase [3].

As to `Nc1cc(C2CCNCC(F)(F)c3cccc(c3)Oc3cccc(c3)Cn3cc2cn3)c2nn[nH]c2n1` (centres unmarked) [Example 36, 7-{12,12-Difluoro-18-oxa-3,4,10-triazatetracyclo[17.3.1.1^3,^6.1^13,^1^7]pentacosa-1(23),4,6(25),13,15,17(24),19,21-octaen-7-yl}-3H-[1,2,3]triazolo[4,5-b]pyridin-5-amine], the results for the IC50 at myeloperoxidase [2] and against myeloperoxidase [3] were 1000 to 10000 nM and 1 to 100 nM, respectively.

In the case of `Nc1cc(C2CCNCc3cc(F)cc(c3)OCc3cccc(c3)Cn3cc2cn3)c2nn[nH]c2n1` (centres unmarked) [Example 12, 7-{14-Fluoro-17-oxa-3,4,10-triazatetracyclo[17.3.1.1^3,^6.1^12,^1^6]pentacosa-1(23),4,6(25),12(24),13,15,19,21-octaen-7-yl}-3H-[1,2,3]triazolo[4,5-b]pyridin-5-amine], the half-maximal inhibitory concentration (IC50) at myeloperoxidase [2] and against myeloperoxidase [3] was 1 to 100 nM in each case.

For the compound `Nc1cc(C2CCNCCc3cccc(c3)-c3cccc(c3)Cn3cc2cn3)c2nn[nH]c2n1` (centres unmarked) [Example 30, 7-{8,9,15-triazatetracyclo[16.3.1.1^2,^6.1^8,^11]tetracosa-1(22),2,4,6(24),9,11(23),18,20-octaen-12-yl}-3H-[1,2,3]triazolo[4,5-b]pyridin-5-amine], the concentration for half-maximal inhibition (IC50) at myeloperoxidase [2] lay within 101 to 999 nM; at myeloperoxidase [3] it was 1 to 100 nM.

Regarding `Nc1cc(C2CCNCC3(CC3)COc3cccc(c3)Cn3cc2cn3)c2nn[nH]c2n1` (centres unmarked) [Example 19, 7-{14′-Oxa-3′,4′,10′-triazaspiro[cyclopropane-1,12′-tricyclo[13.3.1.1^3,^6]icosane]-1′(19′),4′,6′(20′),15′,17′-pentaen-7′-yl}-3H-[1,2,3]triazolo[4,5-b]pyridin-5-amine], the IC50 on myeloperoxidase [2] is 101 to 999 nM; on myeloperoxidase [3] it was 1 to 100 nM.

On to `Nc1cc(C2CCNCc3cc(Cl)cc(c3)OCc3cccc(c3)Cn3cc2cn3)c2nn[nH]c2n1` (centres unmarked) [Example 15, 7-{14-Chloro-17-oxa-3,4,10-triazatetracyclo[17.3.1.1^3,^6.1^12,^1^6]pentacosa-1(23),4,6(25),12(24),13,15,19,21-octaen-7-yl}-3H-[1,2,3]triazolo[4,5-b]pyridin-5-amine], for which the concentration for half-maximal inhibition (IC50) on myeloperoxidase [2] fell in the range of 101 to 999 nM; on myeloperoxidase [3], 1 to 100 nM.

For `COc1ccc2cc1OCc1cccc(c1)Cn1cc(cn1)C(c1cc(N)nc3[nH]nnc13)CCNC2` (centres unmarked) [Example 13, 7-{15-Methoxy-17-oxa-3,4,10-triazatetracyclo[17.3.1.1^3,^6.1^12,^1^6]pentacosa-1(23),4,6(25),12(24),13,15,19,21-octaen-7-yl}-3H-[1,2,3]triazolo[4,5-b]pyridin-5-amine], the IC50 against myeloperoxidase [2] fell in the range of 1000 to 10000 nM; against myeloperoxidase [3], 101 to 999 nM.

As for `C[C@H]1Oc2cccc(c2)Cn2cc(cn2)C(c2cc(N)nc3[nH]nnc23)CCNCc2cccc1c2` (stereo partly drawn) [Example 10, 7-[(17R)-17-Methyl-18-oxa-3,4,10-triazatetracyclo[17.3.1.1^3,^6.1^12,^16]pentacosa-1(23),4,6(25),12,14,16(24),19,21-octaen-7-yl]-3H-[1,2,3]triazolo[4,5-b]pyridin-5-amine], the IC50 lay within 101 to 999 nM on myeloperoxidase [2] and 1 to 100 nM at myeloperoxidase [3].

As to `C[C@H]1Cc2cccc(c2)Oc2cccc(c2)Cn2cc(cn2)C(c2cc(N)nc3[nH]nnc23)CCN1` (stereo partly drawn) [Example 7, 7-[(11S)-11-Methyl-18-oxa-3,4,10-triazatetracyclo[17.3.1.1^3,^6.1^13,^1^7]pentacosa-1(23),4,6(25),13,15,17(24),19,21-octaen-7-yl]-3H-[1,2,3]triazolo[4,5-b]pyridin-5-amine], the IC50 against myeloperoxidase [2] and against myeloperoxidase [3] was 1 to 100 nM each time.

The term IC50 denotes the concentration that inhibits the measured activity by half.
